Source: patent publication US20250090626A1, “NEW PEPTIDE AND USES THEREOF” (Neo Cremar Co., Ltd., priority 2021, published 2025)
No end group written: not given here.

Key:
Assay type in all cases: cell-based, mouse
[1] = tested on: C2C12 cells; assay: Scratch experiment, degree of cell recovery; settings: C2C12, 1000 nM peptide, 1 day in proliferation medium
Procedure: When the C2C12 cells were 100% grown, cells were scratches on the surface, treated with 1000 nM MIF1 or Ac-MIF1 peptides, and cultured for 1 day, followed by observation for a degree of cell recovery.

[2] = tested on: C2C12 cells; assay: mRNA expression of myodifferentiation and sarcopenia factors (real-time PCR); settings: C2C12 myodifferentiation, peptide-treated vs untreated
Procedure: (§1) After adding 1 ml of TRIzol™ reagent, the cells were crushed using a sonicator. After centrifugation of the crushed sample (12,000 rpm, 10 min, 4° C.), the supernatant was transferred to a new tube, added with 200 μl of chloroform, and left at room temperature for 10 minutes. After 10 minutes, centrifugation (12,000 rpm, 10 min, 4° C.) was performed, yielded a transparent supernatant. Next, 500 μl of isopropanol was added, the mixture was left for 10 minutes, and centrifugation was performed to obtain RNA pellets. After washing by adding 70% ethanol (distilled water treated with ethanol+diethylpyrocarbonate (hereinafter referred to as DEPC)) to the RNA pellets, complete removal and drying were followed. The dried transparent RNA was added with DEPC-treated distilled water and then stored at −80° C. Total RNA volume was measured by nanodrop, and the 18s and 28s bands were detected in 1.2% agarose gel. cDNA was synthesized with 2 μg of total RNA, random hexamer primers, and reverse transcriptase (25° C.: 10 min, 37° C.: 120 min, 85° C.: 5 min).
(§2) Real-time PCR (RT-PCR) was performed for detecting gene expression. For observation of real-time gene expression, gene expression was analyzed using the Power SYBR Green PCR Master Mix, which includes fluorescent materials of SYBR green (7500 Real-time PCR system). The PCR primer was designed with Primer 3 software (http://frodo.wi.mit.edu) according to the nucleotide sequence secured from NCBI GenBank. PCR was performed 40 times at 95° C. for 10 minutes, again at 95° C. for 33 seconds, at gene primer temperature (tm) for 33 seconds, and at 72° C. for 33 seconds. Gene expression values were analyzed through the analysis of c(t) values obtained through real-time PCR analysis (fold change 2-^ΔΔCt formula). Setting the gene expression value of the untreated cells to 1, the gene expression value of the treated cells was calculated. In the analysis of gene c(t) values, normalization was conducted with the glyceraldehyde-3-phosphate dehydrogenase (GAPDH).

[3] = tested on: C2C12 cells; assay: Protein expression of myodifferentiation and sarcopenia factors (Western blot, immunocytochemistry); settings: C2C12 myodifferentiation, peptide-treated vs untreated
Procedure: The medium of cultured C2C12 cells was removed and washed once with PBS. The washed cells were treated with 4% formaldehyde (Sigma), fixed for 15 minutes, then washed using PBS, added with 0.2% trypton X-100 (Sigma), and left for 5 minutes. After washing again using PBS, adding 1% normal goat serum, and leaving for 30 minutes, the primary antibody (MYOD, myogenin (MYOG):myosin light chain (MYL2); 1:50) was added to carry out a reaction at 4° C. for 14 hours. The antibodies were removed, washing was performed 3 times with PBS for 10 minutes, and then the cells were left with secondary antibody (Alexa Fluor 488 goat anti-Mouse & rabbit SFX kit t) for 1 hour. After 1 hour, the antibodies were removed, washing was performed with PBS for 10 minutes, the nuclei were stained with 4′,6-diamidino-2-phenylindol (DAPI), and the expression of the proteins was observed using fluorescence microscopy.
(1) The medium of cultured C2C12 cells was removed, followed by washing with PBS. After adding LIPA buffer and protease inhibitor to the washed cells, the proteins included in the supernatant were collected after centrifugation for 10 minutes at 12000 rpm. 40 μg of the extracted proteins were subjected to electrophoresis in 8 to 10% acrylamide gel and then transferred to a polyvinylidene fluoride (PVDF) membrane (Milipore). These were blocked with 3% skim milk or bovine serum albumin (BSA) at room temperature for 1 hour. Afterwards, primary antibody diluted in 1% skim milk or BSA (Pax7; 1:500, MYOD; 1:500, MYOG; 1:400, MYL2; 1:1000, MYH; 1:500, MSTN; 1:1000, β-actin; 1:1000, MuRF1; 1:400, and Atrogin; 1:1:400) was added and reacted at 4° C. for over 16 hours. After 16 hours, cells were washed three times with TBST (Tris-buffered saline with Tween 20) and reacted with secondary antibody with horseradish peroxidase (HRP) conjugated at room temperature for 1 hour. It was washed three times with TBST and developed after adding Super Signal West Pico Chemiluminescent Substrate.

[4] = tested on: 3T3L1 cells; assay: 3T3L1 cell proliferation (MTT method); settings: 3T3L1, Ac-MIF1 1000 nM, 2 days, FIG. 13A
Procedure: 3T3L1 cells, mouse fibroblasts, were cultured in Dulbecco's Modified Eagle's Medium (DMEM)+10% fetal bovine serum (FBS)+1% penicillin/streptomycin (P/S). To validate the effect of MIF peptide, 3T3L1 cells (2×10^3 cells/ml) were placed in a 12-well cell culture dish, attached for 24 hours, and treated with MIF peptide (1000 nM) for 2 days, followed by observation of cell proliferation by MTT method. The medium was replaced every 2 days, and the cells were cultured at 37° C.
To validate cell proliferation, the culture medium of the cells was removed, the cells were washed with DMEM, 500 μl of MTT reagent (0.5 mg/ml) dissolved in phosphate buffered saline (PBS) was added to each well, and the cells were left at 37° C. for 1 hour. The reaction solution was removed, and 1000 μl of DMSO was added to each well. Purple formazan crystals were completely dissolved in DMSO, and the absorbance was measured at 540 nm.

[5] = tested on: 3T3L1 cells; assay: Expression of FMOD, MSTN and lipogenesis-related mRNAs and proteins in 3T3L1 cells; settings: 3T3L1, Ac-MIF1 treated vs untreated; FIG. 13C
Procedure: as §1, §2
(2) The medium of cultured 3T3L1 cells was removed and washed with PBS. After adding LIPA buffer and protease inhibitor to the washed cells, the proteins included in the supernatant were collected after centrifugation at 12000 rpm for 10 minutes. 40 μg of the extracted proteins were subjected to electrophoresis in 8 to 10% acrylamide gel and then transferred to a polyvinylidene fluoride (PVDF) membrane (Milipore). These were blocked with 3% skim milk or bovine serum albumin (BSA) at room temperature for 1 hour. Afterwards, primary antibody diluted in 1% skim milk or BSA (MSTN; 1:1000, 13-actin; 1:1000, CD36; 1:500, CD163; 1:500, FMOD; 1:400, and PPARγ; 1:500) was added and reacted at 4° C. for over 16 hours. After 16 hours, they were washed three times with TBST (Tris-buffered saline with Tween 20) and reacted with secondary antibody conjugated with horseradish peroxidase (HRP) at room temperature for 1 hour. It was washed three times with TBST and developed after adding Super Signal West Pico Chemiluminescent Substrate.

## Ac-VDFEAFWDWG [Ac-MIF1, MIF1 with N-terminus acetylated, 10 mer]
[1]
  scratch recovery degree, increase compared to untreated cells: 28%
[2]
  MYL2 mRNA expression: increased
  MYOD mRNA expression: increased
[3]
  ACVRIIB protein expression: reduced
  Atrogin1 protein expression: reduced
  MSTN protein expression: reduced
  MYH protein expression: increased
  MYOD protein expression: increased
  MYOG protein expression: increased
[4]
  proliferation of 3T3L1 cells, decrease compared to cells without peptide treatment: 8%
[5]
  CD36 expression (mRNA and protein): decreased
  CD163 expression (mRNA and protein): decreased
  FMOD expression (mRNA and protein): decreased
  MSTN expression (mRNA and protein): decreased
  PPARγ expression (mRNA and protein): decreased
